Experimental findings from PubChem BioAssay (NCI) are described below.

Some test systems named below: CAKI-1 renal; A498 renal; SF-539 CNS; CCRF-CEM leukemia; TK-10 renal; SN12C renal; ACHN renal; UO-31 renal; HCC-2998 colon; NCI-H226 lung.
Holding throughout (experiment): DTP human tumour cell line panel, 48 h

Several values for one entry are separate records, joined by “and”; a condition that tells them apart may be missing. Identical values can stand only once.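 Interpolation was linear, between the two tested concentrations surrounding the appropriate level; five concentrations were tested over 48 hours in 96-well plates. GI50: concentration for 50% inhibition of growth. TGI: total growth inhibition.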

`NC(N)=NS(=O)(=O)c1ccc(Nc2c3ccccc3nc3c(C(=O)Nc4ccc(S(N)(=O)=O)cc4)cccc23)cc1`: the TGI with CAKI-1 renal, with A498 renal, in the experiment on SF-539 CNS, in the experiment with CCRF-CEM leukemia, with TK-10 renal and with SN12C renal was greater than 100 µM in each case. For the same compound, the TGI in the experiment on ACHN renal, in the experiment on UO-31 renal and with HCC-2998 colon was greater than 100 µM throughout.

Regarding `COc1ccc(OCC(=O)O)c(C(=O)CCC(=O)O)c1`, the TGI with NCI-H226 lung, in the experiment on A498 renal, in the experiment on SF-539 CNS, with CCRF-CEM leukemia, in the experiment on TK-10 renal and with SN12C renal was greater than 100 µM in each case. For the same compound, the TGI with ACHN renal, in the experiment with UO-31 renal and in the experiment on HCC-2998 colon was greater than 100 µM in each case.

`Clc1ccc(C(n2cc(Br)cn2)n2cc(Br)cn2)cc1`: the TGI (commonly the concentration giving total growth inhibition) was 22.5 µM with NCI-H226 lung; 23.4 µM in the experiment on CAKI-1 renal; 33.1 µM in the experiment on A498 renal; 60.9 µM in the experiment on CCRF-CEM leukemia; 32 µM with TK-10 renal; 32.3 µM with SN12C renal. The total growth inhibition concentration (TGI) in the experiment on ACHN renal came out at 27.6 µM; in the experiment on UO-31 renal, 20 µM; in the experiment with HCC-2998 colon, 31.8 µM.

Regarding `O=C(/C=C/c1ccc(C(F)(F)F)cc1)c1ccc(Nc2nc(NCCO)nc(Nc3ccc(Cl)cc3)n2)cc1`, the GI50 (in general, the concentration that inhibits growth by half) in the experiment on NCI-H226 lung is 4.29 µM; in the experiment with CAKI-1 renal, 5.12 µM; with A498 renal, 1.67 µM; in the experiment on SF-539 CNS, 2.39 µM; in the experiment with CCRF-CEM leukemia it was 2.75 µM; in the experiment with SN12C renal, 5.53 µM. Further, the results for the GI50 in the experiment with ACHN renal, in the experiment with UO-31 renal and in the experiment on HCC-2998 colon were 4.81 µM, 1.75 µM and 2.93 µM, respectively. The total growth inhibition concentration (TGI) in the experiment with NCI-H226 lung was 18.7 µM; in the experiment on CAKI-1 renal, 18.8 µM; with A498 renal, 12.6 µM; in the experiment with SF-539 CNS, 6.62 µM; in the experiment with CCRF-CEM leukemia, 8.24 µM; in the experiment with SN12C renal, 17.5 µM. Moreover, the total growth inhibition concentration (TGI) with ACHN renal stood at 17 µM; in the experiment on UO-31 renal, 4.39 µM; in the experiment on HCC-2998 colon it was 8.17 µM.

Consider `CCOC(=O)c1[nH]c(COC(C)=O)c2c1CCCCCCCCCC2`, for which the TGI in the experiment with NCI-H226 lung, in the experiment on CAKI-1 renal, in the experiment on A498 renal, in the experiment on SF-539 CNS, in the experiment with CCRF-CEM leukemia and in the experiment with TK-10 renal was greater than 100 µM in each case. The TGI in the experiment on SN12C renal, in the experiment with UO-31 renal and with HCC-2998 colon was greater than 100 µM each time.

`S=P(N1CC1)(N1CC1)N1CC1`: the GI50 in the experiment with CAKI-1 renal was 6.08 µM and 20 µM; with A498 renal, 24.5 µM; in the experiment with SF-539 CNS, 11.4 µM and 23.3 µM; in the experiment on CCRF-CEM leukemia it was 2.11 µM; in the experiment on TK-10 renal, 44.5 µM and 127 µM; in the experiment on ACHN renal, 3.39 µM. Besides, the GI50 in the experiment on UO-31 renal was 18.2 µM and 28.3 µM; with HCC-2998 colon it was 22.5 µM and 208 µM. Further, the TGI was 39.8 µM and 280 µM in the experiment with A498 renal; 49 µM and 223 µM and 182 µM in the experiment with SF-539 CNS; > 85.8 µM and 622 µM with CCRF-CEM leukemia; > 95.3 µM and 877 µM and 522 µM in the experiment with TK-10 renal; 37.3 µM and 335 µM in the experiment on ACHN renal; 39.3 µM and 288 µM and 69 µM with UO-31 renal.

For `COC(=O)[C@@H](C)C[C@H](Cc1ccccc1)NC(=O)c1csc([C@@H](C[C@H](C(C)C)N(C)C(=O)[C@@H](NC(=O)[C@H]2CCCCN2C)C2CC2)OC(C)=O)n1`, the GI50 was 0.009 µM and 0.00417 µM in the experiment with NCI-H226 lung; 0.00577 µM in the experiment with CAKI-1 renal; 0.000862 µM with A498 renal; 0.00125 µM and 0.00165 µM in the experiment with SF-539 CNS; 0.000621 µM and 0.00165 µM in the experiment with CCRF-CEM leukemia; 0.00115 µM and 0.00165 µM in the experiment with SN12C renal. For the same compound, the GI50 in the experiment on ACHN renal was 0.00104 µM and 0.00165 µM; with UO-31 renal, 0.00516 µM and 0.00284 µM; in the experiment with HCC-2998 colon it was 0.000338 µM and 0.00165 µM. Also, the TGI is 1.18 µM with NCI-H226 lung; 0.00448 µM and 0.00257 µM in the experiment on SF-539 CNS; greater than 16.5 µM in the experiment on CCRF-CEM leukemia; greater than 16.5 µM with SN12C renal; greater than 16.5 µM in the experiment on ACHN renal; greater than 16.5 µM with UO-31 renal. This compound also gave a total growth inhibition concentration (TGI) with HCC-2998 colon greater than 16.5 µM.

In the case of `N#CC1CCCCCCCCCCC(=O)N(CCCl)C1=O` (stereo not drawn), the TGI in the experiment on CAKI-1 renal, in the experiment on A498 renal, in the experiment on SF-539 CNS, with CCRF-CEM leukemia, with TK-10 renal and in the experiment with SN12C renal was greater than 100 µM throughout. In addition, the concentration for total growth inhibition (TGI) with ACHN renal, with UO-31 renal and with HCC-2998 colon was greater than 100 µM each time.

On to `CC(=O)C1=C(O)CC2CC3c4[nH]c5ccccc5c4CCN3CC2C1` (stereo not drawn), for which the TGI is greater than 100 µM with NCI-H226 lung; greater than 100 µM with A498 renal; greater than 100 µM with SF-539 CNS; 87.7 µM in the experiment with CCRF-CEM leukemia; greater than 100 µM in the experiment with TK-10 renal; greater than 100 µM with SN12C renal. In addition, the concentration for total growth inhibition (TGI) with ACHN renal, in the experiment with UO-31 renal and with HCC-2998 colon was greater than 100 µM each time.

Regarding `O=C(c1ccccc1)c1cn(/N=C\c2ccccc2)c(=O)nc1-c1ccccc1`, the total growth inhibition concentration (TGI) in the experiment with NCI-H226 lung, with A498 renal, with SF-539 CNS, in the experiment with CCRF-CEM leukemia, with TK-10 renal and with SN12C renal was greater than 100 µM in each case. Moreover, the TGI in the experiment on ACHN renal, in the experiment on UO-31 renal and with HCC-2998 colon was greater than 100 µM each time.

On to `CN(C)CCCNC(=O)c1cc(NC(=O)c2cc(NC(=O)CCNS(=O)(=O)c3ccc4c(c3)C(=O)c3ccccc3C4=O)cn2C)cn1C`, for which the GI50 was greater than 100 µM in the experiment with NCI-H226 lung; greater than 100 µM with CAKI-1 renal; greater than 100 µM in the experiment with A498 renal; greater than 100 µM with SF-539 CNS; greater than 100 µM with CCRF-CEM leukemia; 74.2 µM with TK-10 renal. Also, the GI50 in the experiment on SN12C renal, with UO-31 renal and with HCC-2998 colon was greater than 100 µM in each case. Moreover, the TGI in the experiment on NCI-H226 lung, in the experiment with CAKI-1 renal, in the experiment with A498 renal, in the experiment with SF-539 CNS, with CCRF-CEM leukemia and with TK-10 renal was greater than 100 µM each time. Further, the concentration for total growth inhibition (TGI) with SN12C renal, in the experiment with UO-31 renal and in the experiment on HCC-2998 colon was greater than 100 µM each time.

For the compound `CCCSS[C@H]1NC(=O)[C@H]1NC(=O)COc1ccccc1`, the concentration for total growth inhibition (TGI) with CAKI-1 renal is 43.6 µM; in the experiment with A498 renal, 70.3 µM; with SF-539 CNS, 29.5 µM; in the experiment on CCRF-CEM leukemia, 19.1 µM; with TK-10 renal, 63.9 µM; in the experiment on SN12C renal it was 29.8 µM. The TGI was 30.2 µM in the experiment on ACHN renal, greater than 100 µM in the experiment on UO-31 renal and 29.9 µM with HCC-2998 colon.
